System: YAP/TAZ-TEAD transcription
Test: Reporter gene assay for measuring the inhibition of YAP/TAZ-TEAD transcription (TEAD-responsive element luciferase reporter in Hek293T cells)
Assay type: cell-based
Conditions: 24 hours incubation
Experimental: Example 56: Activity of Compounds of the Disclosure in a Reporter Gene Assay for Measuring the Inhibition of YAP/TAZ-TEAD Transcription
Hek293T cells were cultured in DMEM supplemented with 10% fetal bovine serum, Sodium pyruvate, Sodium bicarbonate, L-glutamine. The cells were harvested and transiently transfected with TEAD-responsive element luciferase reporter. Transfected cells were plated in 384-well plate containing pre-diluted compounds. After 24 hours incubation at 37° C./5% CO2, assay plates were cooled to room temperature and levelled to an equal volume per well, prior to the addition of 25 uL luciferase substrate SteadyLite (Perkin Elmer)/well. The plate was shaken for 10 min at 600 rpm, centrifuged for 1 min at 500 rpm and measured with an Envision reader (PerkinElmer). The amount of relative light units produced by the TEAD reporter was used to calculate the percentage of inhibition.
The percent of reporter inhibition was calculated in the presence of a positive control inhibitor (100% inhibition) versus a condition with the presence of the vehicle basal activity of the reporter (0% inhibition). The ability of a test compound to inhibit this activity was determined as: Percentage inhibition=[[…]((RLU determined in the presence of vehicle−RLU determined for sample with test compound present) divided by (RLU determined in the presence of vehicle−RLU determined for sample with positive control inhibitor))]*100.
The activities of example compounds tested are depicted in Table 3. The activity ranges A, B and C refer to IC50 values in the reporter gene assay as follows: “A”: IC50<1 μM; “B”: 1 μM≤IC50≤10 μM and “C”: IC50>10 μM; NT=not tested.

Row | Structure (SMILES) | IC50 (Homo sapiens, HEK-293T, 24 h) [µM] | IC50 [µM]
1 | CC(=O)NC[C@H]1CN(c2ccc(C(F)(F)F)cc2)c2cccnc2N1 [39-En1, (S)-N-((1-(4-(trifluoromethyl)phenyl)-1,2,3,4-tetrahydropyrido[2,3-b]pyrazin-3-yl)methyl)acetamide] | < 1 | 
2 | CC(=O)NC[C@@H]1CN(c2ccc(C(F)(F)F)cc2)c2cccnc2N1 [39-En2, (R)-N-((1-(4-(trifluoromethyl)phenyl)-1,2,3,4-tetrahydropyrido[2,3-b]pyrazin-3-yl)methyl)acetamide] | < 1 | 
3 | CC(=O)N1CCN2c3ncccc3N(c3ccc(C(F)(F)F)cn3)CC2C1 (centres unmarked) [53-En2, 1-(5-(5-(trifluoromethyl)pyridin-2-yl)-5,6,6a,7,9,10-hexahydro-8H-pyrazino[1,2-a]pyrido[3,2-e]pyrazin-8-yl)ethan-1-one] |  | > 10
4 | CNC(=O)O[C@H]1C[C@@H]2CN(c3ccc(C(F)(F)F)cc3)c3cccnc3N2C1 [55-En1, (6aR,8S)-5-(4-(trifluoromethyl)phenyl)-5,6,6a,7,8,9-hexahydropyrido[3,2-e]pyrrolo[1,2-a]pyrazin-8-yl methylcarbamate] | < 1 | 
5 | O=C(O)C1CCN2c3ccccc3N(c3ccc(C(F)(F)F)cc3)CC2C1 (stereo not drawn) [65A, (cis)- or (trans)-5-(4-(trifluoromethyl)phenyl)-6,6a,7,8,9,10-hexahydro-5H-pyrido[1,2-a]quinoxaline-8-carboxylic acid] | < 1 | 
6 | CC(=O)N[C@@H]1C[C@@H]2CN(c3ccc(C(F)(F)F)cc3)c3cccnc3N2C1 [70-D1, N-((6aR,8R)-5-(4-(trifluoromethyl)phenyl)-5,6,6a,7,8,9-hexahydropyrido[3,2-e]pyrrolo[1,2-a]pyrazin-8-yl)acetamide] | < 1 | 
7 | CC(=O)N[C@H]1C[C@@H]2CN(c3ccc(C(F)(F)F)cc3)c3cccnc3N2C1 [70-D2, N-((6aR,8S)-5-(4-(trifluoromethyl)phenyl)-5,6,6a,7,8,9-hexahydropyrido[3,2-e]pyrrolo[1,2-a]pyrazin-8-yl)acetamide] | < 1 | 
8 | O=C(O)C1CCN2c3ncccc3N(c3ccc(C(F)(F)F)cc3)CC2C1 [96A-En1, (6aS,8S)- or (6aR,8S)- or (6aR,8R)- or (6aS,8R)-5-(4-(trifluoromethyl)phenyl)-6,6a,7,8,9,10-hexahydro-5H-dipyrido[1,2-a:3′,2′-e]pyrazine-8-carboxylic acid] | < 1 | 
9 | O=C(O)C1CCN2c3ncccc3N(c3ccc(C(F)(F)F)cc3)CC2C1 [96A-En2, (6aS,8S)- or (6aR,8S)- or (6aR,8R)- or (6aS,8R)-5-(4-(trifluoromethyl)phenyl)-6,6a,7,8,9,10-hexahydro-5H-dipyrido[1,2-a:3′,2′-e]pyrazine-8-carboxylic acid] |  | < 1
10 | O=C(O)C1CCN2c3ncc(Cl)cc3N(c3ccc(C(F)(F)F)cc3)CC2C1 (stereo not drawn) [100A, (cis)- or (trans)-3-chloro-5-(4-(trifluoromethyl)phenyl)-6,6a,7,8,9,10-hexahydro-5H-dipyrido[1,2-a:3′,2′-e]pyrazine-8-carboxylic acid] | < 1 | 
11 | Cc1ccc2c(n1)N1CCC(C(=O)O)CC1CN2c1ccc(C(F)(F)F)cc1 [101-D1, (6aS,8S)— or (6aR,8S)— or (6aR,8R)— or (6aS,8R)-2-methyl-5-(4-(trifluoromethyl)phenyl)-6,6a,7,8,9,10-hexahydro-5H-dipyrido[1,2-a:3′,2′-e]pyrazine-8-carboxylic acid] | < 1 | 
12 | Cc1ccc2c(n1)N1CCC(C(=O)O)CC1CN2c1ccc(C(F)(F)F)cc1 [101-D3, (6aS,8S)— or (6aR,8S)— or (6aR,8R)— or (6aS,8R)-2-methyl-5-(4-(trifluoromethyl)phenyl)-6,6a,7,8,9,10-hexahydro-5H-dipyrido[1,2-a:3′,2′-e]pyrazine-8-carboxylic acid] |  | < 1
13 | C[C@@H](O)C(=O)N[C@@H]1C[C@@H]2CN(c3ccc(C(F)(F)F)cc3)c3cccnc3N2C1 [109-En1, (R)-2-hydroxy-N-((6aR,8R)-5-(4-(trifluoromethyl)phenyl)-5,6,6a,7,8,9-hexahydropyrido[3,2-e]pyrrolo[1,2-a]pyrazin-8-yl)propanamide] | < 1 | 
14 | CC1(C(=O)O)CCN2c3ccccc3N(c3ccc(C(F)(F)F)cc3)CC2C1 [115-D1, (6aS,8S)— or (6aR,8S)— or (6aR,8R)— or (6aS,8R)-8-methyl-5-(4-(trifluoromethyl)phenyl)-6,6a,7,8,9,10-hexahydro-5H-pyrido[1,2-a]quinoxaline-8-carboxylic acid] |  | 1 to 10
15 | CC1(C(=O)O)CCN2c3ccccc3N(c3ccc(C(F)(F)F)cc3)CC2C1 [115-D2, (6aS,8S)— or (6aR,8S)— or (6aR,8R)— or (6aS,8R)-8-methyl-5-(4-(trifluoromethyl)phenyl)-6,6a,7,8,9,10-hexahydro-5H-pyrido[1,2-a]quinoxaline-8-carboxylic acid] |  | < 1
16 | O=C(NO)C1CCN2c3ccccc3N(c3ccc(C(F)(F)F)cc3)CC2C1 [116B-En1, (6aS,8S)- or (6aR,8S)- or (6aR,8R)- or (6aS,8R)-N-hydroxy-5-(4-(trifluoromethyl)phenyl)-6,6a,7,8,9,10-hexahydro-5H-pyrido[1,2-a]quinoxaline-8-carboxamide] | < 1 | 
17 | NC(=O)C1CCN2c3ccccc3N(c3ccc(C(F)(F)F)cc3)CC2C1 (stereo not drawn) [117B-En1, (cis)- or (trans)-5-(4-(trifluoromethyl)phenyl)-6,6a,7,8,9,10-hexahydro-5H-pyrido[1,2-a]quinoxaline-8-carboxamide] | < 1 | 
18 | FC(F)(F)c1ccc(N2CC3CC(c4nnn[nH]4)CCN3c3ccccc32)cc1 (centres unmarked) [121-D1, 8-(1H-tetrazol-5-yl)-5-(4-(trifluoromethyl)phenyl)-6,6a,7,8,9,10-hexahydro-5H-pyrido[1,2-a]quinoxaline] | 1 to 10 | 
19 | O=C(O)C1(F)CCN2c3ccccc3N(c3ccc(C(F)(F)F)cc3)CC2C1 [123-D2, (6aS,8S)- or (6aR,8S)- or (6aR,8R)- or (6aS,8R)-8-fluoro-5-(4-(trifluoromethyl)phenyl)-6,6a,7,8,9,10-hexahydro-5H-pyrido[1,2-a]quinoxaline-8-carboxylic acid] |  | < 1
20 | O=C(O)C1(F)CCN2c3ccccc3N(c3ccc(C(F)(F)F)cc3)CC2C1 [123-D3, (6aS,8S)- or (6aR,8S)- or (6aR,8R)- or (6aS,8R)-8-fluoro-5-(4-(trifluoromethyl)phenyl)-6,6a,7,8,9,10-hexahydro-5H-pyrido[1,2-a]quinoxaline-8-carboxylic acid] |  | < 1
21 | O=C(O)C1(F)CCN2c3ccccc3N(c3ccc(C(F)(F)F)cc3)CC2C1 [123-D4, (6aS,8S)- or (6aR,8S)- or (6aR,8R)- or (6aS,8R)-8-fluoro-5-(4-(trifluoromethyl)phenyl)-6,6a,7,8,9,10-hexahydro-5H-pyrido[1,2-a]quinoxaline-8-carboxylic acid] |  | < 1
22 | O=C(O)C1(O)CCN2c3ccccc3N(c3ccc(C(F)(F)F)cc3)CC2C1 (stereo not drawn) [126A, (cis)- or (trans)-8-hydroxy-5-(4-(trifluoromethyl)phenyl)-6,6a,7,8,9,10-hexahydro-5H-pyrido[1,2-a]quinoxaline-8-carboxylic acid] | < 1 | 
23 | C=CC(=O)NCC1CN(c2ccc(C(F)(F)F)cc2)c2ccccc2N1CCO (centres unmarked) [compound 1, N-((1-(2-hydroxyethyl)-4-(4-(trifluoromethyl)phenyl)-1,2,3,4-tetrahydroquinoxalin-2-yl)methyl)acrylamide] | < 1 | 

Source: US20240409556A1, “BENZOPIPERAZINE AND RELATED ANALOGS FOR INHIBITING YAP/TAZ-TEAD” (Springworks Therapeutics, Inc., priority 2023, published 2024)
